ChEMBL document CHEMBL3885881, “DrugMatrix”

Species on record: Rattus norvegicus
Assay: DrugMatrix - Regimen: Daily Repeat
Format: toxicity, organism-based, Sprague-Dawley
Set-up: regimen Daily Repeat, gender Male, age 6-8 weeks
Conditions: in vivo, po, route oral GAVAGE, vehicle 100 % WATER; for ABSOLUTE BASOPHIL / ABSOLUTE EOSINOPHIL / ABSOLUTE LYMPHOCYTE / ABSOLUTE MONOCYTE / ABSOLUTE SEGMENTED NEUTROPHIL / BASOPHIL / EOSINOPHIL / ERYTHROCYTE COUNT / HEMATOCRIT / HEMOGLOBIN / LEUKOCYTE COUNT / LYMPHOCYTE / MEAN CORPUSCULAR HEMOGLOBIN / MEAN CORPUSCULAR HEMOGLOBIN CONCENTRATION / MEAN CORPUSCULAR VOLUME / MONOCYTE / NEUTROPHIL / NUCLEATED RED BLOOD CELLS / PLATELET COUNT: tissue Blood; for ALANINE AMINOTRANSFERASE / ALBUMIN / ALKALINE PHOSPHATASE / ASPARTATE AMINOTRANSFERASE / BLOOD UREA NITROGEN / CARBON DIOXIDE / CHLORIDE / CHOLESTEROL / CREATINE PHOSPHOKINASE / CREATININE / GLUCOSE / LACTATE DEHYDROGENASE / LIPASE / PHOSPHORUS / POTASSIUM / SODIUM / TOTAL BILIRUBIN / TOTAL PROTEIN / URIC ACID: tissue Plasma
[1] = 30 mg/kg, 120 h, dose level Low, time 5 day
[2] = 3000 mg/kg, 72 h, dose level High, time 3 day
[3] = 3000 mg/kg, 120 h, dose level High, time 5 day

Question: Which results are given for CC1COc2c(N3CCN(C)CC3)c(F)cc3c(=O)c(C(=O)O)cn1c23 (centres undefined) [OFLOXACIN]?
Answer: ABSOLUTE BASOPHIL [1]: 0 CELLS/uL; ABSOLUTE EOSINOPHIL [1]: 0 CELLS/uL; ABSOLUTE LYMPHOCYTE [1]: 11457 CELLS/uL; ABSOLUTE MONOCYTE [1]: 48.33 CELLS/uL; ABSOLUTE SEGMENTED NEUTROPHIL [1]: 1361.33 CELLS/uL; BASOPHIL [1]: 0%; EOSINOPHIL [1]: 0%; ERYTHROCYTE COUNT [1]: 5.63 x10E6/uL; HEMATOCRIT [1]: 35.6%; HEMOGLOBIN [1]: 14.27 G/DL; LEUKOCYTE COUNT [1]: 12.87 x10E3/uL; LYMPHOCYTE [1]: 89%; MEAN CORPUSCULAR HEMOGLOBIN [1]: 25.37 pg; MEAN CORPUSCULAR HEMOGLOBIN CONCENTRATION [1]: 40.07 G/DL; MEAN CORPUSCULAR VOLUME [1]: 63.23 fL; MONOCYTE [1]: 0.33%; NEUTROPHIL [1]: 10.67%; NUCLEATED RED BLOOD CELLS [1]: 0 /100WBC; PLATELET COUNT [1]: 1227 x10E3/uL; ALANINE AMINOTRANSFERASE [1]: 50 u/L; ALBUMIN [1]: 4.2 G/DL; ALKALINE PHOSPHATASE [1]: 350.67 u/L; ASPARTATE AMINOTRANSFERASE [1]: 79 u/L; BLOOD UREA NITROGEN [1]: 13.67 mg/dL; CARBON DIOXIDE [1]: 33.67 mmol/L; CHLORIDE [1]: 101.33 MEQ/L; CHOLESTEROL [1]: 68.33 mg/dL; CREATINE PHOSPHOKINASE [1]: 179.33 u/L; CREATININE [1]: 0.19 mg/dL; GLUCOSE [1]: 155.67 mg/dL; LACTATE DEHYDROGENASE [1]: 144 u/L; LIPASE [1]: 12.33 u/L; PHOSPHORUS [1]: 11.93 mg/dL; POTASSIUM [1]: 6.45 MEQ/L; SODIUM [1]: 144.3 MEQ/L; TOTAL BILIRUBIN [1]: 0.13 mg/dL; TOTAL PROTEIN [1]: 5.9 G/DL; URIC ACID [1]: 1.4 mg/dL; ABSOLUTE BASOPHIL [2]: 0 CELLS/uL; ABSOLUTE EOSINOPHIL [2]: 96.33 CELLS/uL; ABSOLUTE LYMPHOCYTE [2]: 13060.67 CELLS/uL; ABSOLUTE MONOCYTE [2]: 229.33 CELLS/uL; ABSOLUTE SEGMENTED NEUTROPHIL [2]: 680.33 CELLS/uL; BASOPHIL [2]: 0%; EOSINOPHIL [2]: 0.67%; ERYTHROCYTE COUNT [2]: 5.79 x10E6/uL; HEMATOCRIT [2]: 36.3%; HEMOGLOBIN [2]: 14.37 G/DL; LEUKOCYTE COUNT [2]: 14.07 x10E3/uL; LYMPHOCYTE [2]: 92.67%; MEAN CORPUSCULAR HEMOGLOBIN [2]: 24.83 pg; MEAN CORPUSCULAR HEMOGLOBIN CONCENTRATION [2]: 39.57 G/DL; MEAN CORPUSCULAR VOLUME [2]: 62.7 fL; MONOCYTE [2]: 1.67%; NEUTROPHIL [2]: 5%; NUCLEATED RED BLOOD CELLS [2]: 0 /100WBC; PLATELET COUNT [2]: 1277.33 x10E3/uL; ALANINE AMINOTRANSFERASE [2]: 62.33 u/L; ALBUMIN [2]: 3.93 G/DL; ALKALINE PHOSPHATASE [2]: 286.33 u/L; ASPARTATE AMINOTRANSFERASE [2]: 99.33 u/L; BLOOD UREA NITROGEN [2]: 13.33 mg/dL; CARBON DIOXIDE [2]: 22.33 mmol/L; CHLORIDE [2]: 105.33 MEQ/L; CHOLESTEROL [2]: 67 mg/dL; CREATINE PHOSPHOKINASE [2]: 1225.67 u/L; CREATININE [2]: 0.2 mg/dL; GLUCOSE [2]: 162.33 mg/dL; LACTATE DEHYDROGENASE [2]: 245 u/L; LIPASE [2]: 9.67 u/L; PHOSPHORUS [2]: 11.1 mg/dL; POTASSIUM [2]: 5.42 MEQ/L; SODIUM [2]: 145.2 MEQ/L; TOTAL BILIRUBIN [2]: 0.17 mg/dL; TOTAL PROTEIN [2]: 5.57 G/DL; URIC ACID [2]: 1.57 mg/dL; ABSOLUTE BASOPHIL [3]: 0 CELLS/uL; ABSOLUTE EOSINOPHIL [3]: 0 CELLS/uL; ABSOLUTE LYMPHOCYTE [3]: 16402.33 CELLS/uL; ABSOLUTE MONOCYTE [3]: 44.67 CELLS/uL; ABSOLUTE SEGMENTED NEUTROPHIL [3]: 986.33 CELLS/uL; BASOPHIL [3]: 0%; EOSINOPHIL [3]: 0%; ERYTHROCYTE COUNT [3]: 5.74 x10E6/uL; HEMATOCRIT [3]: 35.4%; HEMOGLOBIN [3]: 14.07 G/DL; LEUKOCYTE COUNT [3]: 17.43 x10E3/uL; LYMPHOCYTE [3]: 93.67%; MEAN CORPUSCULAR HEMOGLOBIN [3]: 24.53 pg; MEAN CORPUSCULAR HEMOGLOBIN CONCENTRATION [3]: 39.73 G/DL; MEAN CORPUSCULAR VOLUME [3]: 61.73 fL; MONOCYTE [3]: 0.33%; NEUTROPHIL [3]: 6%; NUCLEATED RED BLOOD CELLS [3]: 0 /100WBC; PLATELET COUNT [3]: 1340 x10E3/uL; ALANINE AMINOTRANSFERASE [3]: 60.33 u/L; ALBUMIN [3]: 4.17 G/DL; ALKALINE PHOSPHATASE [3]: 195 u/L; ASPARTATE AMINOTRANSFERASE [3]: 83 u/L; BLOOD UREA NITROGEN [3]: 14.33 mg/dL; CARBON DIOXIDE [3]: 27 mmol/L; CHLORIDE [3]: 104.33 MEQ/L; CHOLESTEROL [3]: 67.33 mg/dL; CREATINE PHOSPHOKINASE [3]: 394.67 u/L; CREATININE [3]: 0.22 mg/dL; GLUCOSE [3]: 147.67 mg/dL; LACTATE DEHYDROGENASE [3]: 555.67 u/L; LIPASE [3]: 10 u/L; PHOSPHORUS [3]: 11.37 mg/dL; POTASSIUM [3]: 5.87 MEQ/L; SODIUM [3]: 144.67 MEQ/L; TOTAL BILIRUBIN [3]: 0.13 mg/dL; TOTAL PROTEIN [3]: 5.97 G/DL; URIC ACID [3]: 1.67 mg/dL
